Source: PubChem BioAssay (NCI)
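Assay format: 96-well plates, 48-hour exposure. Definition used: TGI = concentration required for complete inhibition of growth.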

Key:
Assay in all cases: NCI-60 cell line screen, 48 h
786-0 renal = system: 786-0 renal
A498 renal = system: A498 renal
ACHN renal = system: ACHN renal
CCRF-CEM leukemia = system: CCRF-CEM leukemia
COLO 205 colon = system: COLO 205 colon
HCC-2998 colon = system: HCC-2998 colon
HCT-116 colon = system: HCT-116 colon
HCT-15 colon = system: HCT-15 colon
HL-60(TB) leukemia = system: HL-60(TB) leukemia
HT29 colon = system: HT29 colon
K-562 leukemia = system: K-562 leukemia
LOX IMVI melanoma = system: LOX IMVI melanoma
MDA-N = system: MDA-N
MOLT-4 leukemia = system: MOLT-4 leukemia
NCI-H23 lung = system: NCI-H23 lung
NCI/ADR-RES ovarian = system: NCI/ADR-RES ovarian
OVCAR-5 ovarian = system: OVCAR-5 ovarian
PC-3 prostate = system: PC-3 prostate
RPMI-8226 leukemia = system: RPMI-8226 leukemia
RXF 393 renal = system: RXF 393 renal
SF-268 CNS = system: SF-268 CNS
SF-539 CNS = system: SF-539 CNS
SK-MEL-2 melanoma = system: SK-MEL-2 melanoma
SK-MEL-28 melanoma = system: SK-MEL-28 melanoma
SK-OV-3 ovarian = system: SK-OV-3 ovarian
SN12C renal = system: SN12C renal
SNB-19 CNS = system: SNB-19 CNS
SNB-75 CNS = system: SNB-75 CNS
SR leukemia = system: SR leukemia
U251 CNS = system: U251 CNS
UACC-257 melanoma = system: UACC-257 melanoma
UO-31 renal = system: UO-31 renal
A549 NSCLC = system: A549 NSCLC
DU-145 prostate = system: DU-145 prostate
HOP-62 NSCLC = system: HOP-62 NSCLC
HOP-92 NSCLC = system: HOP-92 NSCLC
HS 578T breast = system: HS 578T breast
IGROV1 ovarian = system: IGROV1 ovarian
KM12 colon = system: KM12 colon
M14 melanoma = system: M14 melanoma
MALME-3M melanoma = system: MALME-3M melanoma
MCF7 breast = system: MCF7 breast
MDA-MB-231 breast = system: MDA-MB-231 breast
MDA-MB-435 = system: MDA-MB-435
NCI-H226 lung = system: NCI-H226 lung
NCI-H460 lung = system: NCI-H460 lung
NCI-H522 lung = system: NCI-H522 lung
OVCAR-3 ovarian = system: OVCAR-3 ovarian
OVCAR-4 ovarian = system: OVCAR-4 ovarian
OVCAR-8 ovarian = system: OVCAR-8 ovarian
SF-295 CNS = system: SF-295 CNS
SK-MEL-5 melanoma = system: SK-MEL-5 melanoma
SW-620 colon = system: SW-620 colon
T-47D breast = system: T-47D breast
TK-10 renal = system: TK-10 renal
CAKI-1 renal = system: CAKI-1 renal
EKVX NSCLC = system: EKVX NSCLC
UACC-62 melanoma = system: UACC-62 melanoma

## CCOC(=O)C(O)(NC(=O)NC(O)(C(=O)OCC)C(F)(F)F)C(F)(F)F (centres undefined)
786-0 renal
  TGI: > 100 µM
A498 renal
  TGI: > 100 µM
ACHN renal
  TGI: > 100 µM
CCRF-CEM leukemia
  TGI: > 100 µM
COLO 205 colon
  TGI: > 100 µM
HCC-2998 colon
  TGI: > 100 µM
HCT-116 colon
  TGI: > 100 µM
HCT-15 colon
  TGI: > 100 µM
HL-60(TB) leukemia
  TGI: > 100 µM
HT29 colon
  TGI: > 100 µM
K-562 leukemia
  TGI: > 100 µM
LOX IMVI melanoma
  TGI: > 100 µM
MDA-N
  TGI: > 100 µM
MOLT-4 leukemia
  TGI: > 100 µM
NCI-H23 lung
  TGI: > 100 µM
NCI/ADR-RES ovarian
  TGI: > 100 µM
OVCAR-5 ovarian
  TGI: > 100 µM
PC-3 prostate
  TGI: > 100 µM
RPMI-8226 leukemia
  TGI: > 100 µM
RXF 393 renal
  TGI: > 100 µM
SF-268 CNS
  TGI: > 100 µM
SF-539 CNS
  TGI: > 100 µM
SK-MEL-2 melanoma
  TGI: > 100 µM
SK-MEL-28 melanoma
  TGI: > 100 µM
SK-OV-3 ovarian
  TGI: > 100 µM
SN12C renal
  TGI: > 100 µM
SNB-19 CNS
  TGI: > 100 µM
SNB-75 CNS
  TGI: > 100 µM
SR leukemia
  TGI: > 100 µM
U251 CNS
  TGI: > 100 µM
UACC-257 melanoma
  TGI: > 100 µM
UO-31 renal
  TGI: > 100 µM

## CSc1nc2c(=O)n(-c3ccccc3)c(=S)n(-c3ccccc3)c2s1
786-0 renal
  TGI: > 100 µM
A549 NSCLC
  TGI: > 100 µM
ACHN renal
  TGI: > 100 µM
CCRF-CEM leukemia
  TGI: > 100 µM
COLO 205 colon
  TGI: > 100 µM
DU-145 prostate
  TGI: > 100 µM
HCC-2998 colon
  TGI: > 100 µM
HCT-116 colon
  TGI: > 100 µM
HCT-15 colon
  TGI: > 100 µM
HL-60(TB) leukemia
  TGI: > 100 µM
HOP-62 NSCLC
  TGI: > 100 µM
HOP-92 NSCLC
  TGI: 80.5 µM
HS 578T breast
  TGI: 94.7 µM
HT29 colon
  TGI: > 100 µM
IGROV1 ovarian
  TGI: > 100 µM
K-562 leukemia
  TGI: > 100 µM
KM12 colon
  TGI: > 100 µM
LOX IMVI melanoma
  TGI: > 100 µM
M14 melanoma
  TGI: > 100 µM
MALME-3M melanoma
  TGI: > 100 µM
MCF7 breast
  TGI: > 100 µM
MDA-MB-231 breast
  TGI: > 100 µM
MDA-MB-435
  TGI: > 100 µM
MDA-N
  TGI: > 100 µM
MOLT-4 leukemia
  TGI: > 100 µM
NCI-H226 lung
  TGI: 86.3 µM
NCI-H23 lung
  TGI: > 100 µM
NCI-H460 lung
  TGI: > 100 µM
NCI-H522 lung
  TGI: > 100 µM
NCI/ADR-RES ovarian
  TGI: > 100 µM
OVCAR-3 ovarian
  TGI: > 100 µM
OVCAR-4 ovarian
  TGI: > 100 µM
OVCAR-5 ovarian
  TGI: > 100 µM
OVCAR-8 ovarian
  TGI: > 100 µM
PC-3 prostate
  TGI: > 100 µM
RPMI-8226 leukemia
  TGI: > 100 µM
RXF 393 renal
  TGI: 94.4 µM
SF-268 CNS
  TGI: > 100 µM
SF-295 CNS
  TGI: > 100 µM
SF-539 CNS
  TGI: > 100 µM
SK-MEL-2 melanoma
  TGI: > 100 µM
SK-MEL-28 melanoma
  TGI: > 100 µM
SK-MEL-5 melanoma
  TGI: > 100 µM
SK-OV-3 ovarian
  TGI: > 100 µM
SN12C renal
  TGI: > 100 µM
SNB-19 CNS
  TGI: 64.7 µM
SNB-75 CNS
  TGI: 91.7 µM
SR leukemia
  TGI: > 100 µM
SW-620 colon
  TGI: > 100 µM
T-47D breast
  TGI: > 100 µM
TK-10 renal
  TGI: > 100 µM
U251 CNS
  TGI: > 100 µM
UACC-257 melanoma
  TGI: > 100 µM
UO-31 renal
  TGI: > 100 µM

## CCOC(=O)CSc1[nH]c(NC(=S)Nc2ccccc2)c(C(N)=O)c1C(N)=O
786-0 renal
  TGI: > 10 µM
A549 NSCLC
  TGI: > 10 µM
CAKI-1 renal
  TGI: > 10 µM
CCRF-CEM leukemia
  TGI: > 10 µM
COLO 205 colon
  TGI: > 10 µM
DU-145 prostate
  TGI: > 10 µM
EKVX NSCLC
  TGI: > 10 µM
HCC-2998 colon
  TGI: > 10 µM
HCT-15 colon
  TGI: > 10 µM
HL-60(TB) leukemia
  TGI: 4.78 µM
HOP-62 NSCLC
  TGI: > 10 µM
HOP-92 NSCLC
  TGI: > 10 µM
HT29 colon
  TGI: > 10 µM
IGROV1 ovarian
  TGI: > 10 µM
K-562 leukemia
  TGI: > 10 µM
KM12 colon
  TGI: > 10 µM
LOX IMVI melanoma
  TGI: > 10 µM
M14 melanoma
  TGI: > 10 µM
MALME-3M melanoma
  TGI: > 10 µM
MCF7 breast
  TGI: > 10 µM
MDA-MB-231 breast
  TGI: > 10 µM
MDA-MB-435
  TGI: > 10 µM
MDA-N
  TGI: > 10 µM
MOLT-4 leukemia
  TGI: > 10 µM
NCI-H23 lung
  TGI: > 10 µM
OVCAR-4 ovarian
  TGI: > 10 µM
OVCAR-8 ovarian
  TGI: > 10 µM
PC-3 prostate
  TGI: > 10 µM
RPMI-8226 leukemia
  TGI: > 10 µM
RXF 393 renal
  TGI: > 10 µM
SF-268 CNS
  TGI: > 10 µM
SF-295 CNS
  TGI: > 10 µM
SK-MEL-28 melanoma
  TGI: > 10 µM
SK-MEL-5 melanoma
  TGI: > 10 µM
SK-OV-3 ovarian
  TGI: > 10 µM
SN12C renal
  TGI: > 10 µM
SNB-75 CNS
  TGI: > 10 µM
SR leukemia
  TGI: > 10 µM
SW-620 colon
  TGI: > 10 µM
T-47D breast
  TGI: > 10 µM
TK-10 renal
  TGI: > 10 µM
UACC-257 melanoma
  TGI: > 10 µM
UACC-62 melanoma
  TGI: > 10 µM
